The text below walks through data of patent US9409864B2, “Sulfonamide TRPA1 receptor antagonists” (ARIO PHARMA LIMITED, priority 2013, dated 2016).

The test system of assay [1] is oxaliplatin-induced mechanical hyperalgesia in rats. Briefly: Oxaliplatin-induced mechanical hyperalgesia in rats. The format is in vivo. The following applies: Rattus norvegicus, 168 h, 30 μmol/kg oral, 7 days post i.v. oxaliplatin 2.5 mg/kg. As for the experimental part:
Oxaliplatin-Induced Mechanical Hyperalgesia in Rats
The method described by Nassini et al. (Pain, 2011, 152(7), 1621-31) was used with minor modifications. Restrained rats were treated with a single intravenous bolus injection of oxaliplatin (2.5 mg/kg) dissolved in normal saline. This approach was sufficient to elicit reproducible allodynic behaviour evident 3 days post injection and during the day thereafter. For convenience all acute experiments were conducted 7 days post injection when compounds were orally administered at 30 μmol/kg.

In assay [2] the target is T1, native human TRPA1 receptors (Homo sapiens, UniProt O75762).
T1 construct: stably expressing native human TRPA1 receptors were used; endogenous in cells; host or cells: A549 human lung adenocarcinoma epithelial cell line
T1 sequence (O75762 whole entry): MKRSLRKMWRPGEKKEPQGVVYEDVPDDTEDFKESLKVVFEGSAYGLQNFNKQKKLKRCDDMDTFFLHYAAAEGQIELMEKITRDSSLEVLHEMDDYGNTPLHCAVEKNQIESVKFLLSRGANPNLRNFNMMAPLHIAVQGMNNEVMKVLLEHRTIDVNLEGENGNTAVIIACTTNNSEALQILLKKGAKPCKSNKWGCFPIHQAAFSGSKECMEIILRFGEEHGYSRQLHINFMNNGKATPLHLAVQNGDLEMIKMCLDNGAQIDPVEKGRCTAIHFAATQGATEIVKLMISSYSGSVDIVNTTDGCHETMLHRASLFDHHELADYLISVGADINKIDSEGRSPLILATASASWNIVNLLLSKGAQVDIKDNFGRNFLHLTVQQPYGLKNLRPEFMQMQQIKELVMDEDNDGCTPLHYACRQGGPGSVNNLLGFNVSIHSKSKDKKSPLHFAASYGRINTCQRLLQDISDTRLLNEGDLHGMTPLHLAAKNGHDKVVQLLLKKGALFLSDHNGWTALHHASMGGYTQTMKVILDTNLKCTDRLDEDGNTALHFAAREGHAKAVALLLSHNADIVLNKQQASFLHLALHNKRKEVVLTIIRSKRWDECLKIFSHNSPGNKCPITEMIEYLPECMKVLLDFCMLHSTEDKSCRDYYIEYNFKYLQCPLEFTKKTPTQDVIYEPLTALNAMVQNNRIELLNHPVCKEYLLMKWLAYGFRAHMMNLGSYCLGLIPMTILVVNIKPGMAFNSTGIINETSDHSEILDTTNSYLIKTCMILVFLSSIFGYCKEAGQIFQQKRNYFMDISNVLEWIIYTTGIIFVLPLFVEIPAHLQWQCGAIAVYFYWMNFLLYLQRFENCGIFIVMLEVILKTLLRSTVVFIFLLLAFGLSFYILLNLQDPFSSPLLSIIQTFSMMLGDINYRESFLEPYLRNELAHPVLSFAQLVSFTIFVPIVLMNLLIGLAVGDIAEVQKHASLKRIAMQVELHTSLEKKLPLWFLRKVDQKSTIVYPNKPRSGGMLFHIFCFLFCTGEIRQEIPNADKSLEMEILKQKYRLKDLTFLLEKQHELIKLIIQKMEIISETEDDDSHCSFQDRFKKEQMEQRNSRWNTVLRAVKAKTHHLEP
Briefly: PF-4840154 (1 μM)-induced Ca2+ fluorescence measurements in A549 cell line. The assay is classed as cell-based. The following applies: for inhibition at 10 µM: 10 μM compound against 1 μM PF-4840154, A549 cells; for IC50: A549 cells. As for the experimental part: PF-4840154 (1 μM)-Induced Ca^2+ Fluorescence Measurements in A549 Cell Line
Human lung adenocarcinoma epithelial cell line (A549) stably expressing native human TRPA1 receptors were used. The cells were cultured in medium consisting of Eagle's minimal essential medium (EMEM) supplemented with 10% fetal bovine serum (FBS), penicillin (100 IU/ml), streptomycin ([…]), L-glutamine (2 mM), sodium bicarbonate (2.5 g/L) and HEPES (24 mM). Cells were kept at 37° C. in 5% CO2/humidified air. For the experiments the cells were seeded at a density of 16,000 cells/well into 96-well black, clear-bottom plates. After 24 hours incubation the cells were loaded with medium supplemented with 2.5 mM probenecid, 3 μM of the calcium sensitive fluorescent dye Fluo-4 AM and 0.01% pluronic acid, for 30 min at 37° C. Afterwards the loading solution was aspirated and 100 μl/well of assay buffer: Hank's Balanced Salt Solution (HBSS) supplemented with 2.5 mM probenecid and 500 μM Brilliant Black (Aldrich) was added. Stock solutions (100 mM) of ligands were made in Dimethyl Sulfoxide (DMSO) and stored at −20° C. Serial dilutions of ligands for experimental use were made in HBSS buffer. After placing both plates (cell culture and compound plate) into the FlexStation II (Molecular Device, Union City, Calif. 94587, US), fluorescence changes were measured. On-line additions were carried out in a volume of […]. To facilitate drug diffusion into the wells in antagonist type experiments, the studies were performed at 36.5° C. and three cycles of mixing (25 μl from each well moved up and down 3 times) were performed immediately after antagonist injection to the wells. All exemplified compounds were tested alone (to address residual agonistic activity) and against 1 μM of PF-4840154 to address inhibitory activity at the initial concentration of 10 μM. For selected examples the entire inhibitory concentration-response curves were constructed and the IC50 value calculated.
PF-4840154 (1 μM) increased [Ca^2+] in the vast majority (95%) of cultured cells which were thereby identified as TRPA1 expressing cells.

Assay [3] has as its system PF-4840154-induced mechanical hyperalgesia in rats. The experiment in a line: Agonist (PF-4840154)-induced mechanical hyperalgesia in rats. The format is in vivo. The following applies: Rattus norvegicus, 30 μmol/kg oral, PF-4840154 0.05 nmol/50 μl/paw intraplantar. From the text:
Agonist (PF-4840154)-Induced Mechanical Hyperalgesia in Rats
The method is used to investigate the anti-hyperalgesic effects of the compounds listed in the present invention following agonist (PF-4840154)-induced hyperalgesic responses. The activity is indicative of TRPA1 receptor occupancy following oral dosing. Specifically, male SD rats (Charles River, Italy) weighing 70-100 g. were used. The anti-hyperalgesic effects were investigated using the electronic dynamometer test. PF-4840154 (Sigma, USA) was used to induce mechanical hyperalgesia. Local, intraplantar injection of PF-4840154 at 0.05 nmol/50 μl/paw caused the reduction of the hind paw withdrawal response induced by mechanical stimuli. Mechanical stimulation was induced in basal condition and 30, 60, 120, 180 and 240 minutes after the oral administration of the antagonists dissolved in 2.5% DMSO and 30% Solutol. Compounds were orally administered (30 μmol/kg/10 ml) to rats 1 hour before the injection of PF-4840154 into the plantar surface of a rat's hind using a micro syringe.

The mark [4] stands for this setting: read-out: % of reversal of mechanical allodynia.
Where [5] appears, read: read-out: Maximal inhibition (%).
[6] abbreviates: against PF-4840154 (1 μM)-evoked [Ca2+]i mobilization.

Where two headings read alike, the source gives them in different places.

Regarding `CCN(C1(C(=O)NCc2cc(-c3ccc(C(F)(F)F)cc3)nc(N3CCCC3)c2)CC1)S(=O)(=O)c1ccc(Cl)s1` [Example 34, 1-[(5-chloro-2-thienyl)sulfonyl-ethyl-amino]-N-[[2-pyrrolidin-1-yl-6-[4-(trifluoromethyl)phenyl]-4-pyridyl]methyl]cyclopropanecarboxamide], the inhibition in vivo at 30 µmol/kg in assay [1] (setting [4]) and in assay [1] (setting [5]) was 71% in each case. The same compound yielded an inhibition at 10 µM in assay [2] of 100%. This compound returned a half-inhibitory concentration (IC50) in assay [2] (setting [6]) of 0.025 µM.

Take `CCN(C1(C(=O)NCc2cc(OC)nc(-c3ccc(C(F)(F)F)cc3)c2)CC1)S(=O)(=O)c1ccc(Cl)s1` [Example 50, 1-[(5-chloro-2-thienyl)sulfonyl-ethyl-amino]-N-[[2-methoxy-6-[4-(trifluoromethyl)phenyl]-4-pyridyl]methyl] cyclopropanecarboxamide]: the inhibition in vivo at 30 µmol/kg is 82% in assay [1] (setting [4]), 82% in assay [1] (setting [5]), 76% in assay [3] (setting [4]) and 76% in assay [3] (setting [5]). In assay [2], the inhibition at 10 µM was 100%. Further, half-maximal inhibition in assay [2] (setting [6]) (IC50) was put at 0.019 µM.

Take `C=C(C(=O)NCc1ccnc(-c2ccc(OC(F)(F)F)cc2)c1)N(C)S(=O)(=O)c1ccc(Cl)cc1` [Example 4, 2-[(4-chlorophenyl)sulfonyl-methyl-amino]-N-[[2-[4-(trifluoromethoxy)phenyl]-4-pyridyl]methyl]prop-2-enamide]: the inhibition in vivo at 30 µmol/kg in assay [3] (setting [4]) and in assay [3] (setting [5]) was 67% each time. The inhibition at 10 µM in assay [2] came out at 98%. Besides, in assay [2] (setting [6]), the midpoint of inhibition, the IC50, lay at 0.078 µM.

As to `C=C(C(=O)NCc1ccnc(-c2ccc(OC(F)(F)F)cc2)c1)N(CC)S(=O)(=O)c1ccc(Cl)cc1` [Example 5, 2-[(4-chlorophenyl)sulfonyl-ethyl-amino]-N-[[2-[4-(trifluoromethoxy)phenyl]-4-pyridyl]methyl]prop-2-enamide], the inhibition in vivo at 30 µmol/kg in assay [3] (setting [4]) and in assay [3] (setting [5]) was 76% in each case. The inhibition at 10 µM in assay [2] came out at 99%. In assay [2] (setting [6]), this compound displayed an IC50 of 0.1 µM.

With `CCN(C1(C(=O)NCc2ccnc(-c3ccc(OC(F)(F)F)cc3)c2)CC1)S(=O)(=O)c1ccc(F)cc1` [Example 26, 1-[ethyl-(4-fluorophenyl)sulfonyl-amino]-N-[[2-[4-(trifluoromethoxy)phenyl]-4-pyridyl]methyl]cyclopropanecarboxamide], the inhibition in vivo at 30 µmol/kg in assay [3] (setting [4]) and in assay [3] (setting [5]) was 64% each time. Besides, the inhibition at 10 µM in assay [2] was found to be 100%. In assay [2] (setting [6]), the concentration for half-maximal inhibition (IC50) is 0.151 µM.

Take `CCN(C1(C(=O)NCc2cc(-c3ccc(C(F)(F)F)cc3)nc(N3CCOCC3)c2)CC1)S(=O)(=O)c1ccc(F)cc1` [Example 62, 1-[ethyl-(4-fluorophenyl)sulfonyl-amino]-N-[[2-morpholino-6-[4-(trifluoromethyl)phenyl]-4-pyridyl]methyl] cyclopropanecarboxamide]: at 10 µM the inhibition in assay [2] was 100%. For the same compound, the 50% inhibitory concentration (IC50) in assay [2] (setting [6]) is 0.66 µM.

With `CCN(C1(C(=O)NCc2cccc(-c3ccc(C(F)(F)F)cc3)c2)CC1)S(=O)(=O)c1ccc(Cl)cc1` [Example 30, 1-[(4-chlorophenyl)sulfonyl-ethyl-amino]-N-[[3-[4-(trifluoromethyl)phenyl]phenyl]methyl]cyclopropanecarboxamide], the inhibition in vivo at 30 µmol/kg in assay [3] (setting [4]) and in assay [3] (setting [5]) was 82% each time. This compound also yielded an inhibition at 10 µM in assay [2] of 100%. The compound also returned a half-maximal inhibitory concentration (IC50) in assay [2] (setting [6]) of 0.1 µM.

Take `CCN(C1(C(=O)NCc2cc(-c3ccc(C(F)(F)F)cc3)ccn2)CC1)S(=O)(=O)c1ccc(F)cc1` [Example 60, 1-[ethyl-(4-fluorophenyl)sulfonyl-amino]-N-[[4-[4-(trifluoromethyl)phenyl]-2-pyridyl]methyl]cyclopropanecarboxamide]: at 10 µM the inhibition in assay [2] was 100%. Further, the IC50 in assay [2] (setting [6]) is 0.423 µM.

In assay [2], `C=C(C(=O)NCc1cc(-c2ccc(C(F)(F)F)cc2)nc(N(C)C)c1)N(CC)S(=O)(=O)c1cccs1` [Example 41, N-[[2-dimethylamino-6-[4-(trifluoromethyl)phenyl]-4-pyridyl]methyl]-2-(ethyl(2-thienylsulfonyl)amino)prop-2-enamide] showed an inhibition at 10 µM of 96%. The compound further came in with a 50% inhibitory concentration (IC50) in assay [2] (setting [6]) of 0.135 µM.

As to `C=C(C(=O)NCc1cc(OC)nc(-c2ccc(C(F)(F)F)cc2)c1)N(CC)S(=O)(=O)c1ccc(F)cc1` [Example 40, 2-[ethyl-(4-fluorophenyl)sulfonyl-amino]-N-[[2-methoxy-6-[4-(trifluoromethyl)phenyl]-4-pyridyl]methyl]prop-2-enamide], the inhibition in vivo at 30 µmol/kg in assay [1] (setting [4]) and in assay [1] (setting [5]) was 103% each time. For the same compound, the inhibition at 10 µM in assay [2] was 100%. The IC50 in assay [2] (setting [6]) turned out to be 0.016 µM.

Take `O=C(NCc1cc(-c2ccc(OC(F)(F)F)cc2)nc(N2CCCC2)c1)C1(NS(=O)(=O)c2ccc(F)cc2)CC1` [Example 33, 1-[(4-fluorophenyl)sulfonylamino]-N-[[2-pyrrolidin-1-yl-6-[4-(trifluoromethoxy)phenyl]-4-pyridyl]methyl]cyclopropanecarboxamide]: in assay [2], the inhibition at 10 µM was 55%. Also, the IC50 in assay [2] (against PF-4840154 (1 μM), cells printed in μM) is > 2 µM.

Compound `C=C(C(=O)NCc1cc(OC(C)C)nc(-c2ccc(C(F)(F)F)cc2)c1)N(CC)S(=O)(=O)c1ccc(F)cc1` [Example 44, 2-[ethyl-(4-fluorophenyl)sulfonyl-amino]-N-[[2-isopropoxy-6-[4-(trifluoromethyl)phenyl]-4-pyridyl]methyl]prop-2-enamide] returned an inhibition at 10 µM in assay [2] of 100%. This compound gave a half-maximal inhibitory concentration (IC50) in assay [2] (setting [6]) of 0.018 µM.

`C=C(C(=O)NCc1cc(-c2ccc(C(F)(F)F)cc2)nc(N2CCOCC2)c1)N(CC)S(=O)(=O)c1ccc(F)cc1` [Example 42, 2-[ethyl-(4-fluorophenyl)sulfonyl-amino]-N-[[2-morpholino-6-[4-(trifluoromethyl)phenyl]-4-pyridyl]methyl]prop-2-enamide] yielded an inhibition at 10 µM in assay [2] of 100%. Besides, in assay [2] (setting [6]), the midpoint of inhibition, the IC50, lay at 0.104 µM.

`C=C(C(=O)NCc1cc(-c2ccc(OC(F)(F)F)cc2)nc(N2CCOCC2)c1)N(C)S(=O)(=O)c1ccc(Cl)cc1` [Example 16, 2-[(4-chlorophenyl)sulfonyl-methyl-amino]-N-[[2-morpholino-6-[4-(trifluoromethoxy)phenyl]-4-pyridyl]methyl]prop-2-enamide]: in assay [2], testing at 10 µM gave an inhibition of 99%. The midpoint of inhibition in assay [2] (setting [6]), the IC50, lay at 0.457 µM.

The compound `CCN(C1(C(=O)NCc2cccc(-c3ccc(C(F)(F)F)cc3)c2)CC1)S(=O)(=O)c1ccc(F)cc1` [Example 29, 1-[ethyl-(4-fluorophenyl)sulfonyl-amino]-N-[[3-[4-(trifluoromethyl)phenyl]phenyl]methyl]cyclopropanecarboxamide] showed an inhibition at 10 µM in assay [2] of 100%. Moreover, the half-inhibitory concentration (IC50) in assay [2] (setting [6]) is 0.138 µM.
